Experimental data reported in patent publication US20160166560A1, “Urea Compounds and Their Use as FAAH Enzyme Inhibitors” (BIAL-PORTELA & Cª, S.A., priority 2013, published 2016).
Counter-ions that a name gives are not always drawn.

Tests used:
[1] = molecular target: T1, FAAH (Mus musculus, UniProt O08914); test: In vitro/ex vivo FAAH activity determination in brain after intra-tracheal instillation; set-up: Liver and brain fragments were removed and processed for enzymatic activity determination; from tissue; species or system male NMRI mice; conditions: remaining enzymatic activity vs controls
T1 sequence (O08914 1-579): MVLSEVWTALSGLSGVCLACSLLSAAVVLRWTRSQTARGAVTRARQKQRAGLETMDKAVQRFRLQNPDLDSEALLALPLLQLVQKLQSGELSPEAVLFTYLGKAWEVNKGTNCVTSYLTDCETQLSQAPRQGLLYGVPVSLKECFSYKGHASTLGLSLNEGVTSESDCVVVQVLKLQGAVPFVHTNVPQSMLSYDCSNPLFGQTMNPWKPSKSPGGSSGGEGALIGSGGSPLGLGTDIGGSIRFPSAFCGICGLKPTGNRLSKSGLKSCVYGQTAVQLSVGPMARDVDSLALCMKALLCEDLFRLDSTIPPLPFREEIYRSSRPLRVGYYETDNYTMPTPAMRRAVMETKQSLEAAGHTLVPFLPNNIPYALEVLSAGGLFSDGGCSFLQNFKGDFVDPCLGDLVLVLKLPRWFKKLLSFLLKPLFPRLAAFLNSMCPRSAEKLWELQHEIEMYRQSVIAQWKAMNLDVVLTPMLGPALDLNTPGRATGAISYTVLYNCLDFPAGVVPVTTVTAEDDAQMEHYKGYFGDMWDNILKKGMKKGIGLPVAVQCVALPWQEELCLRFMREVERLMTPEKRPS
Description: (§1) To evaluate the selectivity of test compounds in inhibiting FAAH activity, male NMRI mice were administrated following instillation with 1 mg/kg compound and were sacrificed after 8 h treatment. Liver and brain fragments were removed and processed for enzymatic activity determination.
(§2) FAAH activity was measured as the amount of ^3H-ethanolamine formed, by liquid scintillation counting, from the hydrolysis of the substrate anandamide (AEA, labeled with ^3H on the ethanolamine part of the molecule). The percentage of remaining enzymatic activity was calculated in respect to controls and after blank subtraction. Therefore, a low value for the test compounds indicates a strong inhibitor.
(§3) Male NMRI mice (body weight range: 25-35 g) were obtained from Harlan Laboratories (Barcelona, Spain). Animals were kept 10 per cage, under controlled environmental conditions (12 hr light [8 am]/12 hr dark [8 pm]cycle; room temperature 22±1° C.). Food and tap water were allowed ad libitum. Animals were habituated to the animal facilities at least for a week prior to experiments. The experiments were all carried out during daylight hours.
(§4) Animals were fasted overnight before administration of compounds. […] After administration the animals were given atipamezole (1 mg/kg) to reverse the sedative and analgesic effects induced by the anaesthesia.
(§5) Fifteen minutes before sacrifice, animals were anesthetized with pentobarbital 60 mg/kg administrated intra-peritoneally. The brain (without cerebellum) and a fragment of liver were collected into plastic vials containing membrane buffer (3 mM MgCl2, 1 mM EDTA, 50 mM Tris HCl, pH 7.4). Glass beads (2.5 mm BioSpec Products, Bartlesville, Okla., USA) were added to the vials containing the brain and liver tissues. Tissues were stored at −20° C. until analysis.
(§6) Anandamide [ethanolamine-1-^3H-] was obtained from American Radiochemicals—with a specific activity of 60 Ci/mmol. All other reagents were obtained from Sigma-Aldrich. Optiphase Supermix was obtained from Perkin Elmer.
(§7) Brain and liver tissues were thawed and homogenized in 10 volumes of membrane buffer (3 mM MgCl2, 1 mM EDTA, 50 mM Tris HCl, pH 7.4) with homogenizer Precellys 24 Dual Tissue Homogenizer (Bertin Technologies) for 2 cycles of 5 sec (5000 rpm).
(§8) Total protein in the tissue homogenates was determined with the BioRad Protein Assay (BioRad) using a standard curve of BSA ([…]). Tissue homogenates were diluted to appropriate concentration for enzymatic determination in assay buffer (1 mM EDTA, 10 mM Tris HCl, pH 7.6).
(§9) Reaction mix (total volume 200 μL) contained 2 μM AEA (2 μM AEA+5 nM ^3H-AEA), 0.1% fatty acid free BSA, 15 μg (brain) or 5 μg (liver) protein, in assay buffer (1 mM EDTA, 10 mM Tris pH 7.6).
(§10) The test compound was used at a level of 1 mg/kg protein. After 15 minutes pre-incubation at 37° C. of the protein sample, reaction was started by the addition of the substrate solution (cold AEA+radiolabelled AEA+BSA). Reaction was carried out for 12 minutes for brain and liver tissues. Reaction was terminated by addition of 400 μL chloroform:methanol (1:1, v/v) solution. Reaction samples were vortex twice, left on ice for 5 minutes and then centrifuged in the microfuge for 7 minutes, 7000 rpm. 200 μL of the obtained supernatants were added to […] Optiphase Supermix scintillation cocktail previously distributed in 24-well plates.
(§11) Counts per minute (cpm) were determined in a Microbeta TriLux scintillation counter. In each assay blank samples (without protein) were prepared.

[2] = Solubility assay in purified water; assay type: physicochemical; conditions: pH 5.7, thermodynamic from solid; purified water pH=5.6-5.8, stirring 2 h, room temperature, HPLC
Description: A saturated solution was prepared by adding the test compound in excess to 1 mL of purified water (pH=5.6-5.8) followed by stirring of the mixture for 2 h at room temperature. Thereupon, the un-dissolved material was removed by filtration and the amount of test compound in the filtrate was quantified by HPLC using a calibration curve.

[3] = tested on: CYPs; test: CYPs metabolic stability assay in HLM (human liver microsomes); assay type: in vitro ADME; conditions: HLM 1 mg/ml protein, compound 5 μM, 60 min, 37° C.; for Control (% remain): absence of NADPH; for CYP+ (% remain): with NADPH 1 mM
Description: Stability of the test compounds was performed in HLM (human liver microsomes) in the presence and in the absence of NADPH.
The stability was measured using the incubation mixture (100 μl total volume) contained 1 mg/ml total protein, MgCl2 5 mM and 50 mM K-phosphate buffer. Samples were incubated in the presence and in the absence of NADPH 1 mM. Reactions were pre-incubated 5 min and the reaction initiated with the compound under test (at a concentration of 5 μM). Samples were incubated for 60 min in a shaking water bath at 37° C. The reaction was stopped by adding 100 μl of acetonitrile. Samples were then centrifuged, filtered and supematant injected in HLPC-MSD. Test compounds were dissolved in DMSO and the final concentration of DMSO in the reaction was below 0.5% (v/v). At T0 acetonitrile was added before adding the compound. All experiments were performed with samples in duplicate.

[4] = molecular target: T1, FAAH; test: In vitro/ex vivo FAAH activity determination in liver after intra-tracheal instillation; set-up: Liver and brain fragments were removed and processed for enzymatic activity determination; from tissue; host or cells: mouse liver fragment homogenate; species or system male NMRI mice; conditions: remaining enzymatic activity vs controls
Description: as §1, §2, §3, §4, §5, §6, §7, §8, §9, §10, §11

[5] = 1 mg/kg intra-tracheal instillation, sacrificed after 8 h
[6] = tested at 0.1 mg/kg rather than 1 mg/kg

| Compound | FAAH Activity - Brain itc (% C) [1, 5] [% C] | solubility at 2 h [2] [mg/mL] | Control (% remain) [3] [% remain] | CYP+ (% remain) [3] [% remain] | FAAH Activity - Liver itc (% C) [4, 5] [% C] | FAAH Activity - Brain itc (% C) [1, 6] [% C] | FAAH Activity - Liver itc (% C) [4, 6] [% C] |
| --- | --- | --- | --- | --- | --- | --- | --- |
| COc1cccc(CN2CCC(N(C)C(=O)n3cnc(-c4cccc(NS(N)(=O)=O)c4)c3)CC2)c1 [Example 3, N-(1-(3-methoxybenzyl)piperidin-4-yl)-N-methyl-4-(3-(sulfamoylamino)phenyl)-1H-imidazole-1-carboxamide hydrochloride] | 96.0 | 7.7 | 103.5 | 17.5 | 5.3 | – | – |
| COc1cccc(CN2CCC(N(C)C(=O)n3cnc(-c4cccc(NC(N)=O)c4)c3)CC2)c1.Cl [Example 17, N-(1-(3-methoxybenzyl)piperidin-4-yl)-N-methyl-4-(3-ureidophenyl)-1 H-imidazole-1-carboxamide hydrochloride] | 91.9 | 14.1 | 103.4 | 21.4 | 4.2 | – | – |
| CN(C(=O)n1cnc(-c2cccc(NC(N)=O)c2)c1)C1CCN(Cc2ccccc2)CC1.O=C(O)/C=C\C(=O)O [Example 21, N-(1-benzylpiperidin-4-yl)-N-methyl-4-(3-ureidophenyl)-1H-imidazole-1-carboxamide maleate] | 92.4 | 4.3 | – | – | 8.2 | – | – |
| COc1cccc(CN2CCC(N(C)C(=O)n3cnc(-c4cccc(NS(N)(=O)=O)c4)c3)CC2)c1.CS(=O)(=O)O [Example 23, N-(1-(3-methoxybenzyl)piperidin-4-yl)-N-methyl-4-(3-(sulfamoylamino)phenyl)-1H-imidazole-1-carboxamide methanesulfonate] | 82.1 | > 16 | – | – | 11.5 | – | – |
| CN(C(=O)n1cnc(-c2ccc(OS(N)(=O)=O)cc2)c1)C1CCN(c2ccc(O)cc2)CC1 [Example 28, 4-(1-((1-(4-hydroxyphenyl)piperidin-4-yl)(methyl)carbamoyl)-1H-imidazol-4-yl)phenyl sulfamate hydrochloride] | 91.0 | – | 84.8 | 66.0 | 3.4 | – | – |
| CN(C(=O)n1cnc(-c2cccc(OS(N)(=O)=O)c2)c1)C1CCN(c2ccc(Br)c(O)c2)CC1 [Example 29, 3-(1-((1-(4-bromo-3-hydroxyphenyl)piperidin-4-yl)(methyl)carbamoyl)-1 H-imidazol-4-yl)phenyl sulfamate hydrochloride] | 97.6 | – | 79.6 | 79.5 | 10.5 | – | – |
| CN(C(=O)n1cnc(-c2cccc(OS(N)(=O)=O)c2)c1)C1CCN(Cc2ccc3c(c2)OCO3)CC1 [Example 30, 3-(1-((1-(benzo[d][1,3]dioxol-5-ylmethyl)piperidin-4-yl)(methyl)carbamoyl)-1H-imidazol-4-yl)phenyl sulfamate hydrochloride] | 107.1 | – | 97.8 | 64.8 | 13.7 | – | – |

Now from value to compound:

| FAAH Activity - Brain itc (% C) [1, 5] [% C] | solubility at 2 h [2] [mg/mL] | Control (% remain) [3] [% remain] | CYP+ (% remain) [3] [% remain] | FAAH Activity - Liver itc (% C) [4, 5] [% C] | FAAH Activity - Brain itc (% C) [1, 6] [% C] | FAAH Activity - Liver itc (% C) [4, 6] [% C] | Compound |
| --- | --- | --- | --- | --- | --- | --- | --- |
| – | – | 111.7 | 18.5 | – | 87.7 | 13.1 | COc1cc(CN2CCC(N(C)C(=O)n3cnc(-c4cccc(C(N)=O)c4)c3)CC2)ccc1F [Example 31, 4-(3-carbamoylphenyl)-N-(1-(4-fluoro-3-methoxybenzyl)piperidin-4-yl)-N-methyl-1H-imidazole-1-carboxamide hydrochloride] |
| – | – | 115.2 | 14.2 | – | 96.0 | 12.8 | COc1ccc(F)c(CN2CCC(N(C)C(=O)n3cnc(-c4cccc(C(N)=O)c4)c3)CC2)c1 [Example 32, 4-(3-carbamoylphenyl)-N-(1-(2-fluoro-5-methoxybenzyl)piperidin-4-yl)-N-methyl-1H-imidazole-1-carboxamide hydrochloride] |
| 102 | > 14.9 | 112.2 | 70.4 | 3.4 | – | – | COc1ccc(CN2CCC(N(C)C(=O)n3cnc(-c4cccc(C(N)=O)c4)c3)CC2)cc1 [Example 33, 4-(3-carbamoylphenyl)-N-(1-(4-methoxybenzyl)piperidin-4-yl)-N-methyl-1H-imidazole-1-carboxamide hydrochloride] |
| 78.7 | > 14.7 | 105.4 | 9.1 | 3.3 | – | – | COc1ccccc1N1CCC(N(C)C(=O)n2cnc(-c3cccc(C(N)=O)c3)c2)CC1 [Example 34, 4-(3-carbamoylphenyl)-N-(1-(2-methoxyphenyl)piperidin-4-yl)-N-methyl-1 H-imidazole-1-carboxamide hydrochloride] |
| 96.6 | 10.2 | 73.8 | 81.0 | 4.3 | – | – | CN(C(=O)n1cnc(-c2cccc(C(N)=O)c2)c1)C1CCN(c2ccc(O)cc2)CC1 [Example 35, 4-(3-carbamoylphenyl)-N-(1-(4-hydroxyphenyl)piperidin-4-yl)-N-methyl-1H-imidazole-1-carboxamide hydrochloride] |
